The target in assay [1] is T1, TAOK2 (Rattus norvegicus, UniProt Q9JLS3).
T1 construct: made in house
T1 sequence (Q9JLS3 1-320 limits assumed): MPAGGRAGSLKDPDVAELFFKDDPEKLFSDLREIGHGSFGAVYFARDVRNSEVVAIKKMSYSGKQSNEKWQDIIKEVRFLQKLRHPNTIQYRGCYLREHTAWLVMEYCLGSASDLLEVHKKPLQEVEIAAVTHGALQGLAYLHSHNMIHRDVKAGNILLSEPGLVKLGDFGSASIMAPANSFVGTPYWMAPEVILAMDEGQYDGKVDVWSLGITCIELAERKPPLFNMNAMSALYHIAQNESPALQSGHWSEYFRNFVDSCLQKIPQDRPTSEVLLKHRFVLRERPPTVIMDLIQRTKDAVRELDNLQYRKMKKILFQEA
Nature of the assay: Radiometric kinase assay. The class given is biochemical. Conditions: determined radiometrically; MBP, γ-labeled ATP. As to the method: Radiometric activity assays of selected compounds against TAOK2 were conducted. A reaction solution of 0.02 mg/ml TAOK2, 50 mM MgCl2, 50 mM HEPES pH 7.5, 1 mg/ml MBP, and increasing compound concentration was made. The compound/DMSO solution was 5% by volume in the final reaction mixture. An ATP solution of 1:20 0.1 μCi/ml 32P -labeled ATP:1 mg/ml ATP was made. 10 μl of ATP solution was added to 50 μl of reaction solution, and allowed to react for 30 minutes. Reactions were stopped by blotting onto filter paper, then submerging in10% trifluoroacetic acid (TFA). Samples were washed 4 times in TFA, then put into scintillation vials. 5 ml Complete Counting Cocktail 3a70B (Research Products International Corp.) was added, and the vials were counted on a Beckman scintillation counter for 10 minutes.
Compounds SW034538 and SW083688 were both selective in the DSF measurements and effective in the GFP-LC3 degradation assays. These compounds were then chosen for radiometric analysis to determine their IC50 values (Table 1). TAOK2 was incubated with inhibitor, MBP, and γ-labeled ATP and allowed to react for 10 minutes. The concentrations of MBP and ATP were chosen such that the reaction was kept in the linear range for the duration of the experiment. […] IC50 value estimates were calculated from the results of the 200 k rescreen described above. […]

The target of assay [2] is T1, TAOK2. Nature of the assay: Kinase-Glo high-throughput screen / re-screen of TAOK2 activity (MBP substrate). The class given is biochemical. The note with it: estimate from HTS re-screen at 1, 3.3 and 10 μM. As to the method: TAOK2 activity was screened in a high-throughput fashion using Kinase-Glo (Promega). A 20 μL, solution of 50 mM HEPES pH 7.4, 50 mM MgCl2, 1.27 mg/ml MBP and 0.005 mg/ml TAOK2 was added to each well of a 384 well Corning plate using a Biotek MultiFlo dispenser. 0.2 μl of compound (columns 3 to 22, 50 μM), DMSO negative control (columns 2, 23, and 24), or staurosporine positive control (column 1, 43.4 μM) were then added to each well with a Biomek Liquid handler. 10 μl of 50 μg/ml ATP solution was added to each well with a Labsystems Multidrop384. The plates were incubated at RT for 100 minutes. 20 μl Kinase Glo (Promega) was added to each well, and allowed to incubate for 10minutes under agitation. Luminescence was read on an Envision Multilabel plate reader.
After cherry picking primary hits, the selected compounds were assayed in a limited dose-response format (10, 3.3, and 1 μM) in triplicate using the primary enzymatic assay for TAOK2. The data for each assay well was normalized to the neutral controls. The normalized activity values (replicates) for each compound in each assay were then condensed to a single value (condensed activity) using the “Robust Condensing” method in Genedata Screener®. The condensed activity is the most representative single value of the triplicates. In general, the triplicates were pre-condensed into a pair of values as follows:
In order to study the relationship between TAOK2 and both cancer and autophagy, a high-throughput screen was performed using a 200,000 compound library to discover novel small-molecule kinase inhibitors (FIG. 1A-D). Phosphorylation reactions were performed in a 384 well format against the generic kinase substrate Myelin Basic Protein (MBP) with the addition of compound. Kinase-Glo (Promega) was then added to each well to detect remaining ATP concentration. Thus, inhibitory compounds would decrease TAOK2 activity, which would increase both remaining ATP concentration and luminescence in those wells.
After the initial screen, 1645 compounds were identified with inhibition greater than three σ above the mean DMSO control (FIG. 1A). The Z′ factor of the initial screen across all plates was 0.77, indicating high significance (FIG. 1B). These compounds were then re-screened in triplicate under the same conditions, with the compounds being assayed at three concentrations (1 μM, 3.3 μM, and 10 μM, FIG. 1C, D). 432 compounds were identified after the re-screen with average inhibitions greater than 10 sigma at the 10 μM concentration. The Z′ factor of the confirmation screen was 0.52, again indicating high significance.

For orientation: IC50 means the point on the concentration scale where inhibition reaches its midpoint.

Molecules are shown by their SMILES.

Turning to `CCC(=O)Nc1nc(C)c(-c2csc(Nc3cc(OC)ccc3OC)n2)s1` [SW034538], inhibition in assay [1] was half-maximal at 300 nM (IC50).

`CCOCCCn1c(=S)[nH]c2cc(C(=O)NCC3COc4ccccc4O3)ccc2c1=O` (stereo not drawn) [SW083688]: half-maximal inhibition in assay [1] (IC50) required 1300 nM.

For `CS(=O)(=O)c1ccc2nc(NC(=O)CCCOc3ccc(Cl)cc3)sc2c1` [SW172006], the IC50 in assay [2] was 5000 nM.

Source of the values: patent publication US20170340636A1, “COMPOSITIONS AND METHODS FOR INHIBITION OF AUTOPHAGY” (Board of Regents, The University of Texas System, priority 2016, published 2017).
